Measured values from paper PMC5668088, “A phase I clinical trial of binimetinib in combination with FOLFOX in patients with advanced metastatic colorectal cancer who failed prior standard therapy” (Oncotarget, 2017).
Read-outs that look alike come from different tables or passages of the source.

Legend:
[1] = for Oxaliplatin T1/2, Avg STD: Table 4
[2] = 5-FU plasma pharmacokinetics without and with binimetinib (LC-MS/MS)
Experimental: Fluorouracil levels in plasma were determined using an LC-MS/MS analytical assay also in the APCF with LLOQ of 3 ng/mL from a 200 μL aliquot of plasma.

previously-treated mCRC = tested on: previously-treated mCRC; set-up: method as in ref 34 = [34]; 34 Bendell J Won KT Ean CC Yung-Jue B Lee C Desai J Lewin J Wallin J Das Thakur M Mwawasi G Cha E Infante J Safety and efficacy of cobimetinib (cobi) and atezolizumab (atezo) in a Phase 1b study of me; conditions: escalating doses of cobimetinib in combination with atezolizumab; 23 patients (4 responders); cited from earlier work
advanced solid tumors = conditions: twice daily, cited from earlier work
[3] = set-up: method as in ref 25 = [25]; 25 Grisham RN Gordon MS Harb WA Aghajanian C McMeekin DS McKinley K Anderson L Chavira R Christy-Bittel J Barrett E Moore KN A phase Ib dose-escalation study of binimetinib (MEK162) in combination wit; conditions: orally twice daily, cited from earlier work
[4] = set-up: method as in ref 19–24 = [19]; 19 Sosman JA Kittaneh M Lolkema MP Postow MA Schwartz G Franklin C Matano A Bhansali S Parasuraman S Kim K A phase 1b/2 study of LEE011 in combination with binimetinib (MEK162) in patients with NRAS-m || [20]; 20 Juric D Soria JC Sharma S Banerji U Azaro A Desai J A phase Ib open-label, multicenter, dose-escalation and-expansion study of orally administered binimetinib (MEK162) plus BYL719 in adult patients || [21]; 21 Chi P Qin L D’Angelo SP Dickson MA Gounder MM Keohan ML Shoushtari AN Condy MM Konen T Fruauff A DeMatteo RP Singer S Hwang S A phase Ib/II study of MEK162 (binimetinib [BINI]) in combination with || [22]; 22 Van Herpen C Postow MA Carlino MS Kalkavan H Weise A Amaria RN De Vos F Carvajal RD Matano A Bhansali S Lam L Yerramilli-Rao P Sosman JA A phase 1b/2 study of ribociclib (LEE011; CDK4/6 inhibitor) || [23]; 23 Dummer R Sandhu S Hassel JC Muñoz E Berking C Gesierich A Ascierto PA Esposito O Carter K Antona V Radhakrishnan R Cui X Caponigro G LOGIC2: Phase 2,multi-center, open-label study of sequential enc; conditions: oral twice daily, continuous dosing; five phase Ib/II trials; cited from earlier work
[5] = cited from earlier work
MEK1/2 = conditions: preclinical; cited from earlier work
[6] = human, in vivo, po
Experimental: A standard 3 + 3 dose-escalation design was followed using a continuous and intermittent oral binimetinib dosing schedule combined with fixed-dose FOLFOX. […] The continuous binimetinib dosing schedule was comprised of 2 dosing levels: 30 mg orally twice daily and 45 mg orally twice daily continuously starting on day 1 with FOLFOX, repeated every 2 weeks. The MTD of binimetinib continuous daily dosing was explored in an additional 6-patient cohort to investigate potential FOLFOX-binimetinib pharmacokinetic interactions. In addition, the MTD dose of binimetinib was explored further with FOLFOX in an intermittent sequential schedule in order to minimize treatment toxicity, with binimetinib twice daily on days 1–5 with FOLFOX on days 6–7 every 2 weeks. The starting dose of binimetinib on the intermittent arm was the MTD dose level identified on the continuous dosing schedule. Following standard dose-escalation rules, the maximum tolerated dose (MTD) for either schedule was defined as the highest dose level tested in which no more than 1 of 6 patients experienced a dose-limiting toxicity (DLT) in the dose-escalation phase. […] No intra-patient dosing escalations were allowed. No escalation beyond the previous binimetinib monotherapy recommended dose of 45 mg PO BID was allowed. […]

[7] = Pt#1, Cycle 1 (without binimetinib)
[8] = Pt#2, Cycle 1 (without binimetinib)
[9] = Pt#2, Cycle 2 (with binimetinib)
[10] = Pt#3, Cycle 1 (without binimetinib)
[11] = Pt#3, Cycle 2 (with binimetinib)
[12] = Pt#4, Cycle 1 (without binimetinib)
[13] = Pt#4, Cycle 2 (with binimetinib)
[14] = Pt#5, Cycle 1 (without binimetinib)
[15] = Pt#5, Cycle 2 (with binimetinib)
[16] = Pt#6, Cycle 2 (with binimetinib)

SMILES: O=C1[O][Pt]2([NH][C@@H]3CCCC[C@H]3[NH]2)[O]C1=O [Oxaliplatin]
- Oxaliplatin AUC, Avg STD ([1]; Cycle 1 (without binimetinib)): 26580.5 4844.8 μg/L X hr
- Oxaliplatin T1/2, Avg STD ([1]; Cycle 1 (without binimetinib)): 37.1 11.7 36
- Oxaliplatin AUC, Avg STD ([1]; Cycle 1 (without binimetinib), listed as oxaliplatin): 26580.5 ± 4844.8 μg/L X hr
- Oxaliplatin AUC, Avg STD ([1]; Cycle 2 (with binimetinib)): 32190.9 11861.2 μg/L X hr
- Oxaliplatin T1/2, Avg STD ([1]; Cycle 2 (with binimetinib)): 38.8 22.6 36
- Oxaliplatin AUC, Avg STD ([1]; Cycle 2 (with binimetinib), listed as oxaliplatin): 32190.9 ± 11861.2 μg/L X hr
- Oxaliplatin AUC [1, 7]: 28618.0 μg/L X hr
- Oxaliplatin Cmax [1, 7]: 536.0 ng/mL
- Oxaliplatin AUC [1, 8]: 31146.9 μg/L X hr
- Oxaliplatin Cmax [1, 8]: 780.8 ng/mL
- Oxaliplatin AUC [1, 9]: 51036.0 μg/L X hr
- Oxaliplatin Cmax [1, 9]: 590.0 ng/mL
- Oxaliplatin AUC [1, 10]: 25757.7 μg/L X hr
- Oxaliplatin Cmax [1, 10]: 686.5 ng/mL
- Oxaliplatin AUC [1, 11]: 33953.4 μg/L X hr
- Oxaliplatin Cmax [1, 11]: 726.5 ng/mL
- Oxaliplatin AUC [1, 12]: 18615.5 μg/L X hr
- Oxaliplatin Cmax [1, 12]: 601.5 ng/mL
- Oxaliplatin AUC [1, 13]: 25138.7 μg/L X hr
- Oxaliplatin Cmax [1, 13]: 748.5 ng/mL
- Oxaliplatin AUC [1, 14]: 28764.2 μg/L X hr
- Oxaliplatin Cmax [1, 14]: 389.3 ng/mL
- Oxaliplatin AUC [1, 15]: 19805.3 μg/L X hr
- Oxaliplatin Cmax [1, 15]: 583.5 ng/mL
- Oxaliplatin AUC [1, 16]: 31020.9 μg/L X hr
- Oxaliplatin Cmax [1, 16]: 671.0 ng/mL
- Oxaliplatin average T1/2 ([1]; with binimetinib): 38.8 ± 22.6 h
- Oxaliplatin average T1/2 ([1]; without binimetinib): 37.1 ± 11.7 h

SMILES: O=c1[nH]cc(F)c(=O)[nH]1 [5-FU, Fluorouracil]
- 5-FU steady-state level, Avg STD ([2]; Cycle 2 (with binimetinib 45 mg BID continuous), plasma, PK cohort): 597.6 ± 204.5 ng/mL
- 5-FU steady-state level [2, 7]: 353.0 ng/mL
- 5-FU steady-state level ([2]; Pt#1, Cycle 2 (with binimetinib)): 293.1 ng/mL
- 5-FU steady-state level [2, 8]: 524.0 ng/mL
- 5-FU steady-state level [2, 9]: 480.5 ng/mL
- 5-FU steady-state level [2, 10]: 627.5 ng/mL
- 5-FU steady-state level [2, 11]: 718.0 ng/mL
- 5-FU steady-state level [2, 12]: 427.5 ng/mL
- 5-FU steady-state level [2, 13]: 770.5 ng/mL
- 5-FU steady-state level [2, 14]: 621.0 ng/mL
- 5-FU steady-state level [2, 15]: 726.0 ng/mL
- 5-FU steady-state level ([2]; Pt#6, Cycle 1 (without binimetinib)): 428.0 ng/mL
- Difference in 5-FU PK with vs without binimetinib ([2]; in vivo): no significant differences

SMILES: O=C(c1ccc(F)c(F)c1Nc1ccc(I)cc1F)N1CC(O)([C@@H]2CCCCN2)C1 [cobimetinib]
- Partial responses (previously-treated mCRC): 17%

SMILES: Cn1cnc2c(F)c(Nc3ccc(Br)cc3F)c(C(=O)NOCCO)cc21 [binimetinib]
- Recommended phase II dose (RP2D) of oral binimetinib (advanced solid tumors; due to recurrent DLTs of retinal events): 45 mg
- MTD of single-agent oral binimetinib (advanced solid tumors; pretreated advanced solid tumors, first dose-escalation phase I study): 60 mg
- RP2D of binimetinib combined with paclitaxel ([3]; continuous dosing, paclitaxel 80 mg/m^2 weekly 3 out of 4 weeks): 30 mg
- RP2D of binimetinib combined with paclitaxel ([3]; intermittent dosing (days 1–5 weekly for 3 out of 4 weeks)): 45 mg
- MTD or RP2D of binimetinib in combination with various targeted agents [4]: 45 mg
- Patients with atrial fibrillation ([5]; in vivo): 1
- Patients with irregular heart rate ([5]; in vivo): 1
- Patients with grade 1–2 retinal adverse events ([5]; phase II trial, binimetinib 45 mg twice daily, NRAS- or BRAF-mutated advanced melanomas): 18%
- Inhibition of MEK and downstream phosphorylated ERK (pERK) (MEK1/2): nanomolar range
- MTD of binimetinib in combination with FOLFOX [6]: 45 mg
